Measured values published in US20230135152A1 (ACURASTEM INCORPORATED, priority 2020, published 2023).
Structures can show the parent of a compound that is named as a salt.

Molecular target: PIKFYVE (Homo sapiens, UniProt Q9Y2I7)
Assay: PIKFYVE assay (luciferase ADP-Glo kinase assay, Promega)
Format: biochemical
Protocol: The activity of Compounds 1-20 was measured using a PIKFYVE assay (luciferase ADP-Glo kinase assay available from Promega Corp. of Madison, Wis.).
The activity of Compounds 39-90 was also measured using a PIKFYVE assay (luciferase ADP-Glo kinase assay available from Promega Corp. of Madison, Wis.).
The activity of Compounds 93-347 was also measured using a PIKFYVE assay (luciferase ADP-Glo kinase assay available from Promega Corp. of Madison, Wis.).

PIKFYVE, sequence (Q9Y2I7 whole entry): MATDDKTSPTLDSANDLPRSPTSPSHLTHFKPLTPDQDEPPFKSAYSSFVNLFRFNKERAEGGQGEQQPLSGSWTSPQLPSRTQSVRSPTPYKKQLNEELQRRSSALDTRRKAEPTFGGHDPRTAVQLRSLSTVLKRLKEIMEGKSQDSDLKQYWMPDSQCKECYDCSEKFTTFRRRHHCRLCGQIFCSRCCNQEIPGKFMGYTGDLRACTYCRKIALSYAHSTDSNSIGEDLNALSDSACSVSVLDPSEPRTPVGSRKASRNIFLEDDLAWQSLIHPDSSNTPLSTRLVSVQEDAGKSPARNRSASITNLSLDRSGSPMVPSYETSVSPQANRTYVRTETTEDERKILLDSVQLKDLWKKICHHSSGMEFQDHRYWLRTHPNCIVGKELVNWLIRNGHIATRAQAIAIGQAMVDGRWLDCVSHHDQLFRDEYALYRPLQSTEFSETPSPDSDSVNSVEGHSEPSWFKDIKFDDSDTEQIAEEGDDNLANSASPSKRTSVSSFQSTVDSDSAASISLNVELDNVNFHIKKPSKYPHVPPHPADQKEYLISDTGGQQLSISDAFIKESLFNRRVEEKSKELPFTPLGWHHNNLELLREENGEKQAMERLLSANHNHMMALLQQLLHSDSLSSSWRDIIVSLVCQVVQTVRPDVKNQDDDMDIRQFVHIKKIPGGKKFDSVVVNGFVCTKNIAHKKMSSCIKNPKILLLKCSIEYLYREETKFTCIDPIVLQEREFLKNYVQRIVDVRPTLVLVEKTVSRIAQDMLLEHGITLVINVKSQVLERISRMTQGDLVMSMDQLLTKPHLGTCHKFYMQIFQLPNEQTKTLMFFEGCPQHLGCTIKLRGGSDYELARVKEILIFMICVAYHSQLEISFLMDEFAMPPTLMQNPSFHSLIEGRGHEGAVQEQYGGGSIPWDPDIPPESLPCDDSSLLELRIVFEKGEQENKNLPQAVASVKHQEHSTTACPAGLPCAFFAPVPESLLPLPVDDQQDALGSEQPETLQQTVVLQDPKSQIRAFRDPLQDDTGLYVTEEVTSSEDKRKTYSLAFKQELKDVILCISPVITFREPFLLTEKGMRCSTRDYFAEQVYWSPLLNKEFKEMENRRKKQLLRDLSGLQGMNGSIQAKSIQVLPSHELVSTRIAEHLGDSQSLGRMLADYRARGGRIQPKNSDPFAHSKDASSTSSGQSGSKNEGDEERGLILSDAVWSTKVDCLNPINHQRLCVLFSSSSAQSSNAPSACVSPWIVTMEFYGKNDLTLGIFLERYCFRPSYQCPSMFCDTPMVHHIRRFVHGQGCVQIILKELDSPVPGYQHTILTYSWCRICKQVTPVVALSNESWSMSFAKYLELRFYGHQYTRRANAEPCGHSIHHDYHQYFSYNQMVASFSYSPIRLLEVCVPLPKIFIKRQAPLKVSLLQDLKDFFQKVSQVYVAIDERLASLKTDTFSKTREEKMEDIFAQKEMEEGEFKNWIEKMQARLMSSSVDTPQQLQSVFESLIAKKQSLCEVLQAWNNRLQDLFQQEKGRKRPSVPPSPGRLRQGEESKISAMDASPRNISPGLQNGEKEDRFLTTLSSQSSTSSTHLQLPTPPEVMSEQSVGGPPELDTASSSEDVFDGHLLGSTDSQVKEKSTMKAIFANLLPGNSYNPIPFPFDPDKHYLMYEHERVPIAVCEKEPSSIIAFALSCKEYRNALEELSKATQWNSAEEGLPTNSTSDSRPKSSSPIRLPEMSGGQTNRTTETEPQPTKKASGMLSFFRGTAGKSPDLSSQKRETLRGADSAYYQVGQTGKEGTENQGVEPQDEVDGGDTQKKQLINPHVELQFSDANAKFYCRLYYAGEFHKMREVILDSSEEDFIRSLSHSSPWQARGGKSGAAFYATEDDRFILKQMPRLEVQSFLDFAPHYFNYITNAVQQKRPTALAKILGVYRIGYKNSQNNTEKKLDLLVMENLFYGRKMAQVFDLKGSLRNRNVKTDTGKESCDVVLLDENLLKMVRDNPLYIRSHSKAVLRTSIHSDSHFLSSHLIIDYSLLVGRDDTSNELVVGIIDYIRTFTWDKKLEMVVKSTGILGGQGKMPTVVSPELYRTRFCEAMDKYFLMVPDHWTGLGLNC

IC50 (Table 3) [nM] | IC50 (Table 2) [nM] | Structure (SMILES) | further results
10 to 100 | – | CO[C@H](CO)c1nc(N2CCOCC2)cc(-n2nc(-c3ccccc3)cc2C2CC2)n1 (single isomer, unassigned) [Compound 256] | –
10 to 100 | – | CO[C@@H](CO)c1nc(N2CCOCC2)cc(-n2nc(-c3ccccc3)cc2C2CC2)n1 (single isomer, unassigned) [Compound 257] | –
10 to 100 | – | CO[C@H](C)c1cccc(-c2ccn(-c3cc(N4CCOCC4)nc(OCCc4cnn(C)c4)n3)n2)c1 (single isomer, unassigned) [Compound 340] | –
10 to 100 | – | CO[C@@H](CO)c1nc(N2CCOCC2)cc(-n2ccc(-c3cc(C)ccc3C)n2)n1 (single isomer, unassigned) [Compound 342] | –
10 to 100 | – | CO[C@H](CO)c1nc(N2CCOCC2)cc(-n2ccc(-c3cc(C)ccc3C)n2)n1 (single isomer, unassigned) [Compound 343] | –
– | – | COCCSc1cc(-n2ccc(-c3cccc(C)c3)n2)nc(OCC2CCCO2)n1 (stereo not drawn) [Compound 18, 4-((2-methoxyethyl)thio)-2-((tetrahydrofuran-2-yl)methoxy)-6-(3-(m-tolyl)-1H-pyrazol-1-yl)pyrimidine] | IC50 (Table 1): 1000 to 10000 nM
– | 101 to 1000 | Clc1ccc(-c2ccn(-c3cc(N4CCOCC4)nc(OCCc4ccccn4)n3)n2)cc1 [Compound 40] | –
– | 1000 to 10000 | Fc1ccc(-c2cnn(-c3cc(N4CC[C@H]5OCC[C@H]54)nc(OCCc4ccccn4)n3)c2)cc1 [Compound 41] | –
– | 101 to 1000 | Cc1cccc(-c2ccn(-c3cc(N4CCOCC4)nc(Cc4ccccc4)n3)n2)c1 [Compound 42] | –
– | 101 to 1000 | c1cc(-c2cc(N3CCOCC3)nc(OCC3CCCO3)n2)n[nH]1 (stereo not drawn) [Compound 45, 4-(6-(1H-pyrazol-3-yl)-2-((tetrahydrofuran-2-yl)methoxy)pyrimidin-4-yl)morpholine] | –
– | 5 to 100 | Cc1cccc(-c2ccn(-c3cc(N4CCOCC4)nc(NCCc4ccccn4)n3)n2)c1 [Compound 46, 4-morpholino-N-(2-(pyridin-2-yl)ethyl)-6-(3-(m-tolyl)-1H-pyrazol-1-yl)pyrimidin-2-amine] | –
– | 5 to 100 | Cc1cccc(-c2ccn(-c3nc(NCCc4cnccn4)cc(N4CCOCC4)n3)n2)c1 [Compound 47] | –
– | 101 to 1000 | Cc1cccc(-c2ccn(-c3cc(N4CC[C@H]5OCC[C@H]54)nc(C(O)CO)n3)n2)c1 (stereo partly drawn) [Compound 48] | –
– | 5 to 100 | COCC(O)c1nc(N2CCOCC2)cc(-n2ccc(-c3cccc(C)c3)n2)n1 (stereo not drawn) [Compound 49] | –
– | < 5 | COC(CO)c1nc(N2CCOCC2)cc(-n2ccc(-c3cccc(C)c3)n2)n1 (stereo not drawn) [Compound 50] | –
– | 1000 to 10000 | CC(C)(C)c1ccn(-c2cc(N3CCOCC3)nc(OCC(O)CO)n2)n1 (stereo not drawn) [Compound 51] | –
– | 101 to 1000 | OCC(O)COc1nc(N2CCOCC2)cc(-n2cc3ccccc3n2)n1 (stereo not drawn) [Compound 52] | –
– | 101 to 1000 | OCC(O)COc1nc(N2CCOCC2)cc(-n2ncc3ccccc32)n1 (stereo not drawn) [Compound 53] | –
– | 101 to 1000 | Cc1cn(-c2cc(N3CCOCC3)nc(OCCc3cnn(C)c3)n2)nc1-c1ccccc1 [Compound 63, 4-(2-(2-(1-methyl-1H-pyrazol-4-yl)ethoxy)-6-(4-methyl-3-phenyl-1H-pyrazol-1-yl)pyrimidin-4-yl)morpholine] | –
– | < 5 | Cc1cccc(-c2ccn(-c3cc(N4CCOCC4)nc(NC(=O)Cc4cnn(C)c4)n3)n2)c1 [Compound 65] | –
– | < 5 | Cc1cccc(-c2ccn(-c3cc(N4CCOCC4)nc(OCC4(C)COC4)n3)n2)c1 [Compound 67] | –
– | < 5 | Cn1cc(CCOc2nc(N3CCOCC3)cc(-n3ccc(-c4ccccc4)n3)n2)cn1 [Compound 73] | –
– | 5 to 100 | OCc1nc(N2CCOCC2)cc(-n2ccc(-c3ccccc3)n2)n1 [Compound 84] | –

IC50 (Table 3) [nM] | IC50 (Table 2) [nM] | Structure (SMILES) | further results
– | < 5 | Cn1cc(CCOc2nc(N3CCOCC3)cc(-n3ccc(-c4cccc(CO)c4)n3)n2)cn1 [Compound 89] | –
3 to 10 | – | Cc1cccc(-c2ccn(-c3cc(N4CCOCC4)nc(N(C)CCc4ccccn4)n3)n2)c1 [Compound 91, N-methyl-4-morpholino-N-(2-(pyridin-2-yl)ethyl)-6-(3-(m-tolyl)-1H-pyrazol-1-yl)pyrimidin-2-amine] | –
3 to 10 | – | Cc1cccc(-c2ccn(-c3cc(N4CCOCC4)nc(OCCc4ccccn4)n3)n2)c1 [Compound 92, 4-(2-(2-(pyridin-2-yl)ethoxy)-6-(3-(m-tolyl)-1H-pyrazol-1-yl)pyrimidin-4-yl)morpholine] | –
10 to 100 | – | Cc1cccc(-c2ccn(-c3cc(N4CC[C@H]5OCC[C@H]54)nc(C(O)CO)n3)n2)c1 (stereo partly drawn) [Compound 151, 1-(4-((3aR,6aR)-hexahydro-4H-furo[3,2-b]pyrrol-4-yl)-6-(3-(m-tolyl)-1H-pyrazol-1-yl)pyrimidin-2-yl)ethane-1,2-diol] | –
100 to 5000 | – | Cn1cc(CCOc2nc(N3CCOCC3)cc(-n3ccc(C4CCC4)n3)n2)cn1 [Compound 192, 4-(6-(3-cyclobutyl-1H-pyrazol-1-yl)-2-(2-(1-methyl-1H-pyrazol-4-yl)ethoxy)pyrimidin-4-yl)morpholine] | –
> 5000 | – | Cn1cc(CCOc2nc(N3CCOCC3)cc(-n3ccc(C4CCCCC4)n3)n2)cn1 [Compound 196, 4-(6-(3-cyclohexyl-1H-pyrazol-1-yl)-2-(2-(1-methyl-1H-pyrazol-4-yl)ethoxy)pyrimidin-4-yl)morpholine] | –
10 to 100 | – | CN(C)Cc1cc(-c2ccccc2)nn1-c1cc(N2CCOCC2)nc(OCC2(C)COC2)n1 [Compound 207, N,N-dimethyl-1-(1-(2-((3-methyloxetan-3-yl)methoxy)-6-morpholinopyrimidin-4-yl)-3-phenyl-1H-pyrazol-5-yl)methanamine] | –
100 to 5000 | – | Cn1cc(CCOc2nc(Oc3cc(-c4ccccc4)n(C)n3)cc(N3CCOCC3)n2)cn1 [Compound 213, 4-(2-(2-(1-methyl-1H-pyrazol-4-yl)ethoxy)-6-((1-methyl-5-phenyl-1H-pyrazol-3-yl)oxy)pyrimidin-4-yl)morpholine] | –
100 to 5000 | – | CN(C)C(=O)c1cc(-c2ccccc2)nn1-c1cc(N2CCOCC2)nc(OCCc2cnn(C)c2)n1 [Compound 222, N,N-dimethyl-1-(2-(2-(1-methyl-1H-pyrazol-4-yl)ethoxy)-6-morpholinopyrimidin-4-yl)-3-phenyl-1H-pyrazole-5-carboxamide] | –
10 to 100 | – | Cc1cccc(-c2ccn(-c3nc4c(c(N5CCOCC5)n3)CN(CCc3ccn(C)n3)C4)n2)c1 [Compound 239, 4-(6-(2-(1-methyl-1H-pyrazol-3-yl)ethyl)-2-(3-(m-tolyl)-1H-pyrazol-1-yl)-6,7-dihydro-5H-pyrrolo[3,4-d]pyrimidin-4-yl)morpholine hydrochloride] | –
100 to 5000 | – | Cc1cc(-c2ccccc2)nn1-c1nc2c(c(N3CCOCC3)n1)CN(CCc1ccn(C)n1)C2 [Compound 240, 4-(6-(2-(1-methyl-1H-pyrazol-3-yl)ethyl)-2-(5-methyl-3-phenyl-1H-pyrazol-1-yl)-6,7-dihydro-5H-pyrrolo[3,4-d]pyrimidin-4-yl)morpholine] | –
100 to 5000 | – | Cc1cc(-c2ccccc2)nn1-c1cc(N2CCOCC2)c2[nH]ccc2n1 [Compound 243, 4-(5-(5-methyl-3-phenyl-1H-pyrazol-1-yl)-1H-pyrrolo[3,2-b]pyridin-7-yl)morpholine] | –
10 to 100 | – | Cn1cc(CCOc2nc(N3CCOCC3)cc(-n3ccc(-c4cccc5c4OCCN5)n3)n2)cn1 [Compound 244, 8-(1-(2-(2-(1-methyl-1H-pyrazol-4-yl)ethoxy)-6-morpholinopyrimidin-4-yl)-1H-pyrazol-3-yl)-3,4-dihydro-2H-benzo[b][1,4]oxazine] | –
100 to 5000 | – | Cc1cccc(N2CC(C)N(c3cc(N4CCOCC4)nc(OCCc4cnn(C)c4)n3)C2=O)c1 (stereo not drawn) [Compound 246, 4-methyl-3-(2-(2-(1-methyl-1H-pyrazol-4-yl)ethoxy)-6-morpholinopyrimidin-4-yl)-1-(m-tolyl)imidazolidin-2-one] | –
100 to 5000 | – | Cc1cccc(-c2cn(C)n(-c3cc(N4CCOCC4)nc(OCCc4cnn(C)c4)n3)c2=O)c1 [Compound 247, 1-methyl-2-(2-(2-(1-methyl-1H-pyrazol-4-yl)ethoxy)-6-morpholinopyrimidin-4-yl)-4-(m-tolyl)-1,2-dihydro-3H-pyrazol-3-one] | –
> 5000 | – | Cc1cccc(CC(=O)Nc2nc(OCCc3cnn(C)c3)cc(N3CCOCC3)n2)c1 [Compound 248, N-(4-(2-(1-methyl-1H-pyrazol-4-yl)ethoxy)-6-morpholinopyrimidin-2-yl)-2-(m-tolyl)acetamide] | –
100 to 5000 | – | Cc1cccc(CC(=O)Nc2cc(N3CCOCC3)nc(OCCc3cnn(C)c3)n2)c1 [Compound 249, N-(2-(2-(1-methyl-1H-pyrazol-4-yl)ethoxy)-6-morpholinopyrimidin-4-yl)-2-(m-tolyl)acetamide] | –
> 5000 | – | Cc1cccc(CC(=O)N(C)c2nc(OCCc3cnn(C)c3)cc(N3CCOCC3)n2)c1 [Compound 250, N-methyl-N-(4-(2-(1-methyl-1H-pyrazol-4-yl)ethoxy)-6-morpholinopyrimidin-2-yl)-2-(m-tolyl)acetamide] | –
3 to 10 | – | Cc1cccc(-c2ccn(-c3nc(OCCc4cnn(C)c4)cc(N4CCOCC4)n3)n2)c1 [Compound 251, 4-(6-(2-(1-methyl-1H-pyrazol-4-yl)ethoxy)-2-(3-(m-tolyl)-1H-pyrazol-1-yl)pyrimidin-4-yl)morpholine] | –
> 5000 | – | CN(c1nc(OCCc2cnn(C)c2)cc(N2CCOCC2)n1)c1ncc2ccccc2n1 [Compound 252, N-methyl-N-(4-(2-(1-methyl-1H-pyrazol-4-yl)ethoxy)-6-morpholinopyrimidin-2-yl)quinazolin-2-amine] | –
10 to 100 | – | CN(C)Cc1ccc2nn(-c3cc(N4CCOCC4)nc(OCCc4cnn(C)c4)n3)cc2c1 [Compound 253, N,N-dimethyl-1-(2-(2-(2-(1-methyl-1H-pyrazol-4-yl)ethoxy)-6-morpholinopyrimidin-4-yl)-2H-indazol-5-yl)methanamine] | –
100 to 5000 | – | Cc1c2cc(CN(C)C)ccc2nn1-c1cc(N2CCOCC2)nc(OCCc2cnn(C)c2)n1 [Compound 254, N,N-dimethyl-1-(3-methyl-2-(2-(2-(1-methyl-1H-pyrazol-4-yl)ethoxy)-6-morpholinopyrimidin-4-yl)-2H-indazol-5-yl)methanamine] | –
